From the CheMixHub viscosity set

Assay: xn = mol fraction of the nth substance listed

CC1=CCC2CC1C2(C)C (centres undefined) + CCCCCC
298.15 K, 101.33 kPa
Conditions	viscosity [mPa·s]
x2 = 0.0422	1.207
x2 = 0.06195	1.165
x2 = 0.1087	1.077
x2 = 0.254	0.842
x2 = 0.3759	0.699
x2 = 0.5049	0.577
x2 = 0.6267	0.487
x2 = 0.7168	0.43
x2 = 0.867	0.355
x2 = 0.9244	0.326
x2 = 0.9625	0.31

CC(C)CO + OCC(O)CO
viscosity [mPa·s], 101.33 kPa
Conditions	x2 = 0.1006	x2 = 0.2008	x2 = 0.2991	x2 = 0.3991	x2 = 0.5003	x2 = 0.6005	x2 = 0.7001	x2 = 0.7997	x2 = 0.8994
298.15 K	4.625	7.894	14.39	26.58	56.03	118.3	233.2	395.9	595.4
308.15 K	3.192	5.58	9.274	15.86	30.35	59.4	110.6	179.4	269.1
318.15 K	2.33	3.788	6.116	9.794	17.19	32.13	55.06	86.54	120.9

CC(C)CO + Cc1ccc(C)cc1
308.15 K, 101 kPa
Conditions	viscosity [mPa·s]
x1 = 0.0452	0.549
x1 = 0.1043	0.562
x1 = 0.1908	0.595
x1 = 0.3019	0.649
x1 = 0.3823	0.697
x1 = 0.4859	0.775
x1 = 0.6097	0.969
x1 = 0.7046	1.218
x1 = 0.8071	1.487
x1 = 0.8948	1.856
x1 = 0.9585	2.247

CCCCCOC(C)=O + Cc1ccccc1O
Conditions	viscosity [mPa·s]
298.15 K, 101 kPa, x2 = 0.5	1.165

CCn1cc[n+](C)c1.O=S(=O)([O-])C(F)(F)F + CC1COC(=O)O1
101 kPa
Conditions	viscosity [mPa·s]
298.15 K, x1 = 0.6987	21.65
303.15 K, x1 = 0.0999	3.915
303.15 K, x1 = 0.1999	5.315
303.15 K, x1 = 0.6987	18.45
308.15 K, x1 = 0.1999	4.575
313.15 K, x1 = 0.3998	6.675
318.15 K, x1 = 0.8998	17.65
323.15 K, x1 = 0.0999	2.425
323.15 K, x1 = 0.3998	5.115

CCOC(=O)CC + CCCCCC
303.15 K, 101 kPa
Conditions	viscosity [mPa·s]
x1 = 0.1832	0.2997
x1 = 0.3971	0.3276
x1 = 0.4989	0.3451
x1 = 0.5988	0.3661
x1 = 0.8005	0.4138

CCCC=O + CCO
298.1 K, 101 kPa
Conditions	viscosity [mPa·s]
x1 = 0.1009	1.261
x1 = 0.1952	1.413
x1 = 0.3034	1.484
x1 = 0.3333	1.463
x1 = 0.3989	1.366
x1 = 0.5109	1.103
x1 = 0.5976	0.896
x1 = 0.7003	0.7
x1 = 0.7924	0.564
x1 = 0.8988	0.468

C1CCC2=[NH+]CCCN2CC1.c1nc[n-]n1 + CCCCO
303.15 K, 100 kPa
Conditions	viscosity [mPa·s]
x1 = 0.1001	6.47
x1 = 0.2	12.31
x1 = 0.2999	22.82
x1 = 0.4003	42.54
x1 = 0.4989	74.34
x1 = 0.6002	128.6
x1 = 0.7008	204.7
x1 = 0.7993	423.5
x1 = 0.9002	608.2

CC(C)CO + CCC(C)O
Conditions	viscosity [mPa·s]
313.15 K, 101 kPa, x2 = 0.3008	2.005

O=C1CCCN1C1CCCCC1 + CN1CCCC1=O
298.15 K, 100 kPa
Conditions	viscosity [mPa·s]
x2 = 0.0108	10.21
x2 = 0.0206	9.998
x2 = 0.026	9.92
x2 = 0.0415	9.645
x2 = 0.046	9.574
x2 = 0.06	9.318
x2 = 0.0748	9.054
x2 = 0.0872	8.858
x2 = 0.094	8.735
x2 = 0.2076	7.103
x2 = 0.302	5.992
x2 = 0.4096	4.942
x2 = 0.5043	4.171
x2 = 0.61	3.449
x2 = 0.7	2.937
x2 = 0.8042	2.436
x2 = 0.9004	2.038
x2 = 0.9083	2.005
x2 = 0.9175	1.967
x2 = 0.9328	1.93
x2 = 0.9426	1.884
x2 = 0.9516	1.854
x2 = 0.9616	1.837
x2 = 0.9708	1.795
x2 = 0.9798	1.775
